Experimental data as given in patent publication US20050059684A1, “Method for reducing residual alcohols in crystalline valacyclovir hydrochloride” (priority 2002, published 2005).
Counter-ions that a name gives are not always drawn.

Assay: Storage stability of valacyclovir hydrochloride: N′-formylvalacyclovir impurity level by HPLC
Type: physicochemical
Conditions: HPLC area percent; for N′-formylvalacyclovir level (area %), T = 0: before storage; for N′-formylvalacyclovir level (area %), T = 3 month, 25° C., 60% humidity: stored three months at 25° C. and 60% RH; for N′-formylvalacyclovir level (area %), T = 3 month, 40° C., 75% humidity: stored three months at 40° C. and 75% RH
Source text: When used herein in connection with the absolute amount of an impurity, percent refers to area percent of the corresponding impurity peak on the chromatogram obtained by high pressure liquid chromatography. [drawing 2]
Impurities in valacyclovir, especially N′-formylvalacyclovir, can be measure by high pressure liquid chromatography. The chromatographic method utilizes a suitable chromatography column such as the reverse phase column Inertsil ODS-3V 5 μm 150×4.6 mm (GL Sciences, Cat. No. 5020-01731). The eluent is preferably acetonitrile (27%) and water (73%) containing 0.05% phosphoric acid (0.5 g 85% H3PO4 in 1 L water). A flow rate of about 1.0 mL/min is suitable for the separation. The column temperature can be at ambient temperature, preferably about 25° C. The detector can be a UV-spectrophotometer operating in the range of 200-600 nm, preferably about 210 nm. The injection (sample) volume is about 50 μL. The diluent used to load the sample onto the column can be, for example, the eluent.
A sample of valacyclovir hydrochloride (sample X) having circa 1700 ppm residual solvent isopropanol was divided into two portions. One portion was treated by the method of the present invention and, after treatment, had less than 500 ppm residual isopropanol (sample Y). Sample Y and the non-treated portion of sample X were each divided into two roughly equal portions. One portion of each samplewas stored at 25° C. and 60% RH for three months, the other portions of each were stored at 40° C. and 75% RH for three months. The amount of N′-formylvalacyclovir in each of the four portions after storage was determined by HPLC.

| N′-formylvalacyclovir level (area %), T = 0 | N′-formylvalacyclovir level (area %), T = 3 month, 25° C., 60% humidity | N′-formylvalacyclovir level (area %), T = 3 month, 40° C., 75% humidity | SMILES |
| --- | --- | --- | --- |
| 0.03 area % | 0.03 area % | 0.05 area % | CC(C)C(N)C(=O)OCCOCn1cnc2c(=O)nc(N)[nH]c21 (stereo not drawn) [Y, valacyclovir hydrochloride] |
| 0.05 area % | 0.08 area % | 0.15 area % | CC(C)C(N)C(=O)OCCOCn1cnc2c(=O)nc(N)[nH]c21 (stereo not drawn) [X, valacyclovir hydrochloride] |
